Values after ≈ are worked out from the molar mass of the structure shown. Read-outs that look alike come from different tables or passages of the source.
Experiments:
[1] = Hydrolytic stability in buffer solutions of various pH (HPLC); assay type: physicochemical; conditions: phosphate-buffered solution, read-out: half life value (T1/2), hydrolytic stability (converted)
Source text: Hydrochloric acid of 0.1 N was used for pH 1 solution. Samples were repeatedly, manually injected onto HPLC at specific time intervals at room temperature. The peak areas of the compounds were monitored by UV detection. […] The “half life value, T1/2,” means the time required for one-half of the total amount of a compound in a solution to be degraded by hydrolysis processes when the rate of removal is nearly exponential. […] A first order calculation was used to determine the rate constant for each buffer on the loss of peak area over time.

[2] = Aqueous solubility (HPLC); assay type: physicochemical; conditions: thermodynamic from solid, water
Description: The solubility experiment procedure was modified due to chemical stabilities. Briefly, an excess of a test compound was added 0.5 mL of water in an one mL of vial, pre-equilibrated, and then sonicated at 23° C. for 3 min. Aliquots were filtered and analyzed for drug contents. The concentration of each compound was determined by HPCL, at λ=254 nm, 23° C. The aliquot containing the analyte was diluted 100× due to the detection limit of the instrument.

HSV-1 [3] = test: Herpetic keratitis in mice with cornea inoculated by HSV-1 (eye-drops); assay type: in vivo, Balb/c mice; conditions: eye-drops 0.34% or 0.2% w/v in saline, 3 times a day; for corneal cloudiness, vehicle-treated group versus treated group: day-14; for severity of ocular disease symptoms (corneal clouding, stromal keratitis, blepharitis): day-21
Description: The effect of Compound 3 on herpetic keratitis was investigated in mice with cornea inoculated by HSV-1. Balb/c mice (eight weeks old, 25 g body weight) were anesthetized with isoflurane, and epithelium of both right and left corneas lightly scratched in a cross-hatch pattern (four horizontal and four vertical scratches) with a 26-gauge needle under a microscope. The mouse cornea was inoculated with 5 μL of HSV-1 suspension containing 2.5×10^6 plaque-forming units (PFU), or saline for control. After the inoculations, mice were assigned randomly to treatment groups (4˜5 mice per group), with both eyes treated with Compound 3 or ganciclovir or vehicle (saline) after lightly anaesthetized. Eight hours after HSV-1 inoculation, 1 drop (10 μl) of 0.34% or 0.2% w/v solution of compound 3 or ganciclovir in saline with anti-fungi agent (0.05 w/v amphotericin-B) was applied to each eye daily, 3 times a day. The keratitis was graded, recorded and scored daily for 21 days, and the eyes were examined with a microscopic camera at frequent intervals.

HSV-1 [4] = test: Attenuation of HSV-1 induced cytopathic effects on Vero cells; assay type: cell-based; conditions: HSV-1 at 10^-4 titration, treated 4 days, different concentrations
Description: Human epithelial (HEp-2) cells were cultured in MEM supplemented with 10% fetal calf serum and 10% heat activated newborn calf serum. Vero cells were cultured in RPMI-1640 and 10% heat activated newborn calf serum. Penicillin (1000 I.U./ml), streptomycin (100 μg/ml), and bicarbonate buffer were present in the medium, and cells were maintained at 37° C., 5% CO2, humidified atmosphere, and subcultured 2˜3 times a week.
The antiviral activity of Compound 3 was determined by evaluating the attenuation in HSV-1 induced cytopathic effects on Vero cells. Vero cells (10,000 cells/well) in a 96-well culture plate were infected with an increasingly diluted HSV-1 virus solution (10^−3 to 10^−5) in L15 medium. After 2 h incubation the unadsorbed virus was removed, the cell monolayer was washed with PBS. […] Every 24 hr the cytopathic effects were observed and photographed under microscope (FIG. 2). Anti-HSV-1 activity was determined by inhibition of cytopathic effect as compared with control. The cytopathic effects effects after HSV-1 propagation HSV-1 between Vero cells were quantified in terms of 50% tissue culture infective dose (TCID50, which was used to determine the infectious titer of HSV-1 which can cause cytopathic effects in culture).

Vero cells = test: Toxicity to Vero cells; assay type: cell-based
[5] = 23° C., sonicated 3 min, read-out: aqueous solubility

Structure (SMILES)	half-life at 1 mg/mL ([1]; pH 7.4, 40° C.) [h]	solubility at 3 min [2, 5] [mg/mL]	further results
Nc1nc2c(ncn2COC(CO)COC(=O)C2(N)CC2c2ccco2)c(=O)[nH]1 (stereo not drawn) [Compound 10, 1-Amino-2-furan-2-yl-cyclopropanecarboxylic acid 2-(2-amino-6-oxo-1,6-dihydro-purin-9-ylmethoxy)-3-hydroxypropyl ester]	29	260 (≈ 643 mM)	–
Nc1nc2c(ncn2COC(CO)COC(=O)C2(N)CC2c2ccccn2)c(=O)[nH]1 (stereo not drawn) [Compound 11, 1-Amino-2-pyridin-2-yl-cyclopropanecarboxylic acid 2-(2-amino-6-oxo-1,6-dihydro-purin-9-ylmethoxy)-3-hydroxypropyl ester]	43	253 (≈ 609 mM)	–
CC1(C)CC1(N)C(=O)OCC(CO)OCn1cnc2c(=O)[nH]c(N)nc21 (stereo not drawn) [Compound 7, 1-Amino-2,2-dimethyl-cyclopropanecarboxylic acid 2-(2-amino-6-oxo-1,6-dihydro-purin-9-ylmethoxy)-3-hydroxypropyl ester]	68	213 (≈ 581 mM)	melting point: > 300 °C
Nc1nc2c(ncn2COC(CO)COC(=O)C2(N)CC2c2ccc(Br)cc2)c(=O)[nH]1 (stereo not drawn) [Compound 5, 1-Amino-2-(4-bromo-phenyl)-cyclopropanecarboxylic acid 2-(2-amino-6-oxo-1,6-dihydro-purin-9-ylmethoxy)-3-hydroxypropyl ester]	85	155 (≈ 314 mM)	–
Nc1nc2c(ncn2COC(CO)COC(=O)C2(N)CC2c2ccccc2)c(=O)[nH]1 (stereo not drawn) [Compound 6, 1-Amino-2-phenyl-cyclopropanecarboxylic acid 2-(2-amino-6-oxo-1,6-dihydro-purin-9-ylmethoxy)-3-hydroxypropyl ester]	75	170 (≈ 410 mM)	–
Nc1nc(O)c2ncn(COC(CO)CO)c2n1 [ganciclovir, reference compound]	–	–	corneal cloudiness, vehicle-treated group versus treated group (HSV-1 [3]): much more significant; severity of ocular disease symptoms (corneal clouding, stromal keratitis, blepharitis) (HSV-1 [3]): reduced the severities in stromal keratitia and corneal clouding dramatically, but blephartitis still existed; toxicity to Vero cells (Vero cells; concentrations used in the antiviral test): nontoxic to Vero cells; solubility at 3 min ([2]; 23 °C): 2.6 mg/mL (≈ 10.2 mM)
Nc1nc2c(ncn2COC(CO)COC(=O)C2(N)CC2C(F)(F)F)c(=O)[nH]1 (stereo not drawn) [Compound 9, 1-Amino-2-trifluoromethyl-cyclopropanecarboxylic acid 2-(2-amino-6-oxo-1,6-dihydro-purin-9-ylmethoxy)-3-hydroxypropyl ester]	33	261 (≈ 642 mM)	–

Further lines, with some results ahead:

half-life at 1 mg/mL ([1]; pH 7.4, 40° C.) [h]	solubility at 3 min [2, 5] [mg/mL]	Structure (SMILES)	further results
–	227 (≈ 644 mM)	CNC1(C(=O)OCC(CO)OCn2cnc3c(=O)[nH]c(N)nc32)CC1 (stereo not drawn) [Compound 4, 1-Methylamino-cyclopropanecarboxylic acid 2-(2-amino-6-oxo-6-dihydro-purin-9-ylmethoxy)-3-hydroxypropyl ester]	–
53	180 (≈ 532 mM)	Nc1nc2c(ncn2COC(CO)COC(=O)C2(N)CC2)c(=O)[nH]1 (stereo not drawn) [Compound 3, 1-amino-cyclopropanecarboxylic acid 2-(2-amino-6-oxo-1,6-dihydro-purin-9-ylmethoxy)-3-hydroxypropyl ester]	corneal cloudiness, vehicle-treated group versus treated group (HSV-1 [3]): much more significant; severity of ocular disease symptoms (corneal clouding, stromal keratitis, blepharitis) (HSV-1 [3]): eliminated the extra-ocular keratitis morphologies almost entirely; melting point: > 300 °C; cytopathogenic effects of HSV-1 on Vero cells (morphological evaluation) (HSV-1 [4]): reduced the cytopathogenic effects of HSV-1 on Vero cells in a concentration-dependent manner; toxicity to Vero cells (Vero cells): nontoxic to Vero cells; half-life at 1 mg/mL ([1]; acidic solution (pH 4), 40° C.): > 300 h
58	–	CC1CC1(N)C(=O)OCC(CO)OCn1cnc2c(=O)[nH]c(N)nc21 (stereo not drawn) [Compound 8, 1-Amino-2-methyl-cyclopropanecarboxylic acid 2-(2-amino-6-oxo-1,6-dihydro-purin-9-ylmethoxy)-3-hydroxypropyl ester]	–

Source: patent US8969361B2, “Cyclopropanecarboxylate esters of purine analogues” (Annji Pharmaceutical Co., Ltd., priority 2012, dated 2015)
